# Measured values: patent US4556715A, “Nicotinic acid derivatives” (Kyorin Pharmaceutical Co., Ltd., priority 1980, dated 1985)
# Read-outs that look alike come from different tables or passages of the source.
# Key:
# [1] = test system: serum and liver lipid levels in rats; assay: Serum and liver lipid levels and relative liver weight in rats (100 mg/kg, 10 days); format: in vivo, Male rats of the Wistar strain; settings: for response vs control in vivo at 100 mg/kg: Rattus norvegicus, po; for response vs control in vivo at 100 mg/kg / Relative liver weight, relative to Control (100): in parentheses, Control = (100); for Liver lipid levels Ch / Liver lipid levels PL / Liver lipid levels TG / Relative liver weight / Serum lipid levels Ch / Serum lipid levels PL / Serum lipid levels TG: 100 mg/kg p.o. 10 days, Mean ± S.E. (n = 9)
# Description: (2) Male rats of the Wistar strain weighing 160-180 g were fed a stock deit (CE-2, Japan CLEA, Tokyo) and water ad libitum. The present compounds and KCD-232 were suspended, respectively, in a 0.5% of CMC solution and give orally to rats once a day at a dose of 100 mg/kg b.w. for 10 days.
# Control rats were received the 0.5% CMC solution alone. The diet was withdrawn immediately after the last administration of compounds. Animals were sacrificed by decapitation 4 hr after the last administration and blood was collected, clotted and centrifuged to obtain serum. The liver was excised quickly and weighed. Total lipids were extracted from the serum and liver, and the levels of Ch, TG and PL were determined colorimetrically.
# [2] = test system: serum and liver lipid levels in normal rats; assay: Effects on relative liver weight, serum and liver lipid levels in normal rats (100 mg/kg, 7 days); format: in vivo, Male Wistar strain rats
# Description: (1) Effects on relative liver weight, serum and liver lipid levels in normal rats
# Male Wistar strain rats, weighing 180-210 g were orally administered the present compounds (X=Cl, n1 =2, 3, 4 and n2 =1) and 4-(4-chlorobenzyloxy)benzyl nicotinate (KCD-232), being X=Cl, n1 =1, n2 =1, respectively, which were suspended in 0.5% carboxymethyl cellulose (CMC) solution once a day at a dose of 100 mg/kg b.w. for 7 days. The last administration was occured in rats fasted overnight. At 4 hr later blood was withdrawn from jugular vein, clotted and centrifuged to obtain serum. The liver was rapidly removed and weighed. Total lipids were extracted from the serum and liver, and cholesterol (Ch), triglycerides (TG) and phospholipids (PL) levels were determined.
# [3] = 240 h, Table 2, read-out: Liver lipid levels PL, relative to Control (100)
# [4] = Table 2, read-out: Liver lipid levels Ch, relative to Control (100)
# [5] = Table 2, read-out: Liver lipid levels TG, relative to Control (100)
# [6] = Table 2, read-out: Serum lipid levels Ch, relative to Control (100)
# [7] = Table 2, read-out: Serum lipid levels PL, relative to Control (100)
# [8] = Table 2, read-out: Serum lipid levels TG, relative to Control (100)
# [9] = Table 1, 100 mg/kg p.o. 7 days, fasted overnight, mean ± S.E. (n = 6)
# [10] = Table 1, in parentheses, Control = (100)
compound,measurement,setting,value
"O=C(OCCCCCCc1ccc(OCCCCCCc2ccc(Cl)cc2)cc1)c1cccnc1 [n1=6, n2=6, 6-{4-[6'-(4-Chlorophenyl)hexyloxy]phenyl}hexyl nicotinate]",response vs control in vivo at 100 mg/kg,"[1]; 240 h, Table 3, read-out: Liver lipid levels PL, relative to Control (100)",107%
same,response vs control in vivo at 100 mg/kg,"[1]; Table 3, read-out: Liver lipid levels Ch, relative to Control (100)",103%
same,response vs control in vivo at 100 mg/kg,"[1]; Table 3, read-out: Liver lipid levels TG, relative to Control (100)",64.3%
same,response vs control in vivo at 100 mg/kg,"[1]; Table 3, read-out: Serum lipid levels Ch, relative to Control (100)",79.3%
same,response vs control in vivo at 100 mg/kg,"[1]; Table 3, read-out: Serum lipid levels PL, relative to Control (100)",64.9%
same,response vs control in vivo at 100 mg/kg,"[1]; Table 3, read-out: Serum lipid levels TG, relative to Control (100)",23.7%
same,Liver lipid levels Ch,[1]; Table 3,2.38 ± 0.08 mg/g liver
same,Liver lipid levels PL,[1]; Table 3,38.7 ± 0.8 mg/g liver
same,Liver lipid levels TG,[1]; Table 3,4.62 ± 0.15 mg/g liver
same,Relative liver weight,[1]; Table 3,3.84 ± 0.10 g/100 g b.w.
same,Serum lipid levels Ch,[1]; Table 3,77.4 ± 3.8 mg/dL
same,Serum lipid levels PL,[1]; Table 3,101 ± 3.7 mg/dL
same,Serum lipid levels TG,[1]; Table 3,29.8 ± 1.5 mg/dL
same,"Relative liver weight, relative to Control (100)",[1]; Table 3,101
"O=C(OCCc1ccc(OCCc2ccc(Cl)cc2)cc1)c1cccnc1 [n1=2, n2=2, 4-(4-Chorophenethyloxy)phenetyl nicotinate]",response vs control in vivo at 100 mg/kg,[1]; [3],107%
same,response vs control in vivo at 100 mg/kg,[1]; [4],79.3%
same,response vs control in vivo at 100 mg/kg,[1]; [5],84.2%
same,response vs control in vivo at 100 mg/kg,[1]; [6],78.8%
same,response vs control in vivo at 100 mg/kg,[1]; [7],78.2%
same,response vs control in vivo at 100 mg/kg,[1]; [8],39.1%
same,Liver lipid levels Ch,[1]; Table 2,2.41 ± 0.10 mg/g liver
same,Liver lipid levels PL,[1]; Table 2,40.8 ± 0.3 mg/g liver
same,Liver lipid levels TG,[1]; Table 2,5.32 ± 0.45 mg/g liver
same,Relative liver weight,[1]; Table 2,3.97 ± 0.05 g/100 g b.w.
same,Serum lipid levels Ch,[1]; Table 2,68.3 ± 3.7 mg/dL
same,Serum lipid levels PL,[1]; Table 2,116 ± 5 mg/dL
same,Serum lipid levels TG,[1]; Table 2,48.4 ± 4.8 mg/dL
same,"Relative liver weight, relative to Control (100)",[1]; Table 2,103
"O=C(OCc1ccc(OCCc2ccc(Cl)cc2)cc1)c1cccnc1 [n1=2, n2=1, 4-[2-(4-Chlorophenyl)ethoxy]benzyl nicotinate]",response vs control in vivo at 100 mg/kg,[1]; [3],102%
same,response vs control in vivo at 100 mg/kg,[1]; [4],96.7%
same,response vs control in vivo at 100 mg/kg,[1]; [5],87%
same,response vs control in vivo at 100 mg/kg,[1]; [6],76.7%
same,response vs control in vivo at 100 mg/kg,[1]; [7],74%
same,response vs control in vivo at 100 mg/kg,[1]; [8],44%
same,Liver lipid levels Ch,[1]; Table 2,2.94 ± 0.07 mg/g liver
same,Liver lipid levels PL,[1]; Table 2,39.0 ± 0.7 mg/g liver
same,Liver lipid levels TG,[1]; Table 2,5.50 ± 0.59 mg/g liver
same,Relative liver weight,[1]; Table 2,3.98 ± 0.06 g/100 g b.w.
same,Serum lipid levels Ch,[1]; Table 2,66.5 ± 2.2 mg/dL
same,Serum lipid levels PL,[1]; Table 2,110 ± 3.7 mg/dL
same,Serum lipid levels TG,[1]; Table 2,54.4 ± 5 mg/dL
same,"Relative liver weight, relative to Control (100)",[1]; Table 2,103
same,"serum Ch, TG and PL (in words)","[2]; 100 mg/kg p.o. 7 days, compared with control","significantly reduced serum Ch, TG and PL"
same,Liver lipid levels Ch,[2]; [9],3.78 ± 0.10 mg/g liver
same,Liver lipid levels PL,[2]; [9],37.2 ± 1.5 mg/g liver
same,Liver lipid levels TG,[2]; [9],11.49 ± 1.65 mg/g liver
same,Serum lipid levels Ch,[2]; [9],53.5 ± 2.2 mg/dL
same,Serum lipid levels PL,[2]; [9],69 ± 2.7 mg/dL
same,Serum lipid levels TG,[2]; [9],22.4 ± 4.3 mg/dL
same,Relative liver weight,"[2]; Table 1, 100 mg/kg p.o. 7 days, mean ± S.E. (n = 6)",3.17 ± 0.10 g/100 g b.w.
same,"Liver lipid levels Ch, relative to Control (100)",[2]; [10],107
same,"Liver lipid levels PL, relative to Control (100)",[2]; [10],101
same,"Liver lipid levels TG, relative to Control (100)",[2]; [10],156
same,"Relative liver weight, relative to Control (100)",[2]; [10],103
same,"Serum lipid levels Ch, relative to Control (100)",[2]; [10],70
same,"Serum lipid levels PL, relative to Control (100)",[2]; [10],68
same,"Serum lipid levels TG, relative to Control (100)",[2]; [10],66
